According to ChEMBL document CHEMBL3861975, “Discovery and Rational Design of Natural-Product-Derived 2-Phenyl-3,4-dihydro-2H-benzo[f]chromen-3-amine Analogs as Novel and Potent Dipeptidyl Peptidase 4 (DPP-4) Inhibitors for the Treatment of Type 2 Diabetes” (J Med Chem, 2016):
Active and inactive are the calls of the source. The rule behind the calls is not given here.

Tests used:
[1] = Half life in Sprague-Dawley rat at 1 mg/kg, iv by LC-MS/MS method; format: ADME, organism-based; settings: in vivo
[2] = AUC (0 to t) in Sprague-Dawley rat at 1 mg/kg, iv by LC-MS/MS method; format: ADME, organism-based; settings: in vivo
[3] = AUC (0 to infinity) in Sprague-Dawley rat at 1 mg/kg, iv by LC-MS/MS method; format: ADME, organism-based; parameters: dose 1 mg/kg, route intravenous, time infinity; settings: in vivo
[4] = Clearance in Sprague-Dawley rat at 1 mg/kg, iv by LC-MS/MS method; format: ADME, organism-based; settings: in vivo
[5] = Mean residence time (0 to infinity) in Sprague-Dawley rat at 1 mg/kg, iv by LC-MS/MS method; format: ADME, organism-based; settings: in vivo
[6] = Volume of distribution at steady state in Sprague-Dawley rat at 1 mg/kg, iv by LC-MS/MS method; format: ADME, organism-based; settings: in vivo, read-out: Vdss
[7] = Half life in Sprague-Dawley rat at 2 mg/kg, po by LC-MS/MS method; format: ADME, organism-based; settings: in vivo
[8] = AUC (0 to t) in Sprague-Dawley rat at 2 mg/kg, po by LC-MS/MS method; format: ADME, organism-based; settings: in vivo
[9] = AUC (0 to infinity) in Sprague-Dawley rat at 2 mg/kg, po by LC-MS/MS method; format: ADME, organism-based; parameters: dose 2 mg/kg, route oral, time infinity; settings: in vivo
[10] = Cmax in Sprague-Dawley rat at 2 mg/kg, po by LC-MS/MS method; format: ADME, organism-based; parameters: dose 2 mg/kg, route oral; settings: in vivo
[11] = Mean residence time (0 to infinity) in Sprague-Dawley rat at 2 mg/kg, po by LC-MS/MS method; format: ADME, organism-based; settings: in vivo
[12] = Tmax in Sprague-Dawley rat at 2 mg/kg, po by LC-MS/MS method; format: ADME, organism-based; settings: in vivo
[13] = Oral bioavailability in Sprague-Dawley rat at 2 mg/kg by LC-MS/MS method; format: ADME, organism-based; settings: in vivo
Mus musculus [14] = experiment: In-vivo inhibition of DPP4 in B6.V-Lep'ob/Lep'ob (ob/ob) mouse at 3 mg/kg, po administered as single dose using Gly-Pro-AMC as substrate after 24 hrs post dose by continuous fluorometric assay; format: functional, organism-based
Mus musculus [15] = organism: Mus musculus; settings: ICR, 5 mg/kg
Description: (§1) In-vivo inhibition of DPP4 in ICR mouse at 5 mg/kg, ip administered as single dose using Gly-Pro-AMC as substrate after 24 hrs post dose by continuous fluorometric assay

Mus musculus [16] = experiment: Improvement in glucose tolerance in ICR mouse at 1 to 10 mg/kg, po administered as single dose 60 mins before glucose challenge and measured 30 to 60 mins post glucose challenge by OGTT method; format: functional, organism-based
Mus musculus [17] = organism: Mus musculus; settings: 1 to 10 mg/kg
Mus musculus [18] = organism: Mus musculus; experiment: animal or person; settings: ICR, ip, 24 h, read-out: INH
Description: as §1

Mus musculus [19] = organism: Mus musculus; experiment: animal or person; settings: po, 24 h, read-out: INH
Mus musculus [20] = organism: Mus musculus; experiment: animal or person; settings: po, 24 h, read-out: INH; remark: listed apart in the source
Mus musculus [21] = organism: Mus musculus; experiment: animal or person; settings: po, 24 h, read-out: INH; remark: listed apart in the source

COc1cc2c3c(ccc2cc1S(C)(=O)=O)O[C@H](c1cc(F)c(F)cc1F)[C@@H](N)C3
half-life [1]: 5.35 h
AUCt [2]: 24208.7 µg/L/h
AUC [3]: 25460.37 µg/L/h
clearance [4]: 0.667 mL/min/kg
MRT inf [5]: 7.56 h
Vd [6]: 0.63 L/kg
half-life [7]: 6.83 h
AUCt [8]: 26527.6 µg/L/h
AUC [9]: 26373.69 µg/L/h
Cmax [10]: 2320 ng/mL
MRT inf [11]: 9.05 h
Tmax [12]: 4.67 h
bioavailability [13]: 54.8%

CS(=O)(=O)n1cc2c(n1)CN([C@H]1CO[C@H](c3cc(F)ccc3F)[C@@H](N)C1)C2
inhibition (Mus musculus [14]): Active
inhibition (Mus musculus [15]): Active

COc1cc2ccc3c(c2cc1OC)C[C@H](N)[C@@H](c1cc(F)c(F)cc1F)O3
half-life [1]: 3.87 h
AUCt [2]: 3380.54 µg/L/h
AUC [3]: 3415 µg/L/h
clearance [4]: 5 mL/min/kg
MRT inf [5]: 4.87 h
Vd [6]: 1.66 L/kg
half-life [7]: 3.05 h
AUCt [8]: 6052.89 µg/L/h
AUC [9]: 6091.31 µg/L/h
Cmax [10]: 502 ng/mL
MRT inf [11]: 6.33 h
Tmax [12]: 4.67 h
bioavailability [13]: 89.2%
Activity (Mus musculus [16]): Dose-dependent effect
inhibition (Mus musculus [17]): Dose-dependent effect
inhibition in vivo at 5 mg/kg (Mus musculus [18]): ≤ 80%
inhibition in vivo at 1 mg/kg (Mus musculus [19]): > 80%
inhibition in vivo at 3 mg/kg (Mus musculus [20]): > 80%
inhibition in vivo at 10 mg/kg (Mus musculus [21]): > 80%
